The source of these data is ChEMBL document CHEMBL1147778, “Development and evaluation of a pharmacophore model for inhibitors of aldosterone synthase (CYP11B2)” (Bioorg Med Chem Lett, 2006).

Experiment [1] addresses T1, Cytochrome P450 11B1, mitochondrial (Homo sapiens, UniProt P15538).
T1 sequence (P15538 whole entry): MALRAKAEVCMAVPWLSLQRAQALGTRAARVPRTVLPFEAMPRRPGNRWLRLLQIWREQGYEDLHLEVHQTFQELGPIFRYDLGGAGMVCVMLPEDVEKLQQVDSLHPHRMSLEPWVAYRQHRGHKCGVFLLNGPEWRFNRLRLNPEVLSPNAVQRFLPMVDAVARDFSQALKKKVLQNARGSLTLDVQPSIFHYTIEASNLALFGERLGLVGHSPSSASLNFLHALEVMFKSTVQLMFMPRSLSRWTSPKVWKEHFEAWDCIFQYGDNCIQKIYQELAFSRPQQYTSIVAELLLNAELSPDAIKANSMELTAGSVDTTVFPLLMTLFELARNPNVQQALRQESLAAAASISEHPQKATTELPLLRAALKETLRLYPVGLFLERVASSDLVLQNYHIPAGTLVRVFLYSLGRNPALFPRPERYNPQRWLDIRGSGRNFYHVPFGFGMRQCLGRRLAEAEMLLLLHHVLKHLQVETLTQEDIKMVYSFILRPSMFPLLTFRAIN
As to the kind of experiment: Inhibition of human CYP11B1 expressed in V79 hamster fibroblasts.

Experiment [2] deals with T2, Cytochrome P450 11B2, mitochondrial (Homo sapiens, UniProt P19099).
T2 sequence (P19099 whole entry): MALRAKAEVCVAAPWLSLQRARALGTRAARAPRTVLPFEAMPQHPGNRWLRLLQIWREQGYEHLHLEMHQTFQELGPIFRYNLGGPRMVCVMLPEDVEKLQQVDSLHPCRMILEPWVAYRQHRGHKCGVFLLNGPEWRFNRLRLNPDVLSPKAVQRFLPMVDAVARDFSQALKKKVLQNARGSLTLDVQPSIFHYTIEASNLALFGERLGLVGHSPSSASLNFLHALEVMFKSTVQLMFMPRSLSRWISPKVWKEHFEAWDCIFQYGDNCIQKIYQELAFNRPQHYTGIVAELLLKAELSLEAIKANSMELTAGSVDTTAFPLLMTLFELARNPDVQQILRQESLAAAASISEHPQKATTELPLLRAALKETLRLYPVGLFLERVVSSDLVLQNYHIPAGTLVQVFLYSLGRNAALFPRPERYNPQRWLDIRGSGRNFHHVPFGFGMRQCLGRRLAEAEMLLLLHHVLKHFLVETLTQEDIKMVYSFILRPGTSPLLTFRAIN
As to the kind of experiment: Inhibition of aldosterone synthase (CYP11B2) expressed in V79 hamster fibroblasts.

The species named for experiment [3] is Homo sapiens. As to the kind of experiment: Selectivity for human CYP11B1 over CYP11B2.

With `c1cncc(-c2ccc3c4c(cccc24)CC3)c1`, the IC50 (in general, the concentration at which inhibition is half-maximal) in experiment [1] came to 2.9 µM; in experiment [2] it was 0.014 µM. Further, the Ratio IC50 in experiment [3] stood at 207.

In the case of `c1cncc(-c2ccc3cccc4c3c2CC4)c1`, in experiment [3], the Ratio IC50 worked out at 245.
